We go through ten compounds from PMC7732024 (Bioorganic & medicinal chemistry letters, 2012).

Data set [1] relates to subgenomic HCV 1b replicon. Put plainly: HCV RNA replication in Huh7 cells containing a subgenomic HCV 1b replicon. Format: cell-based, HCV genotype 1b. Particulars: for decrease of activity on introduction of torsion angle in the linker: one range stated for the group of compounds. (Replicon systems follow genome replication, usually without infectious particles.)
Data set [2] deals with HCV. Particulars: clinical trials, at 24 h following a single dose of 10 mg; cited from earlier work.
Data set [3] relates to HCV. Particulars: cited from earlier work.

On to `COC(=O)N[C@H](C(=O)N1CCC[C@H]1c1ncc(-c2ccc(NS(=O)(=O)c3ccc(-c4cnc([C@@H]5CCCN5C(=O)[C@@H](NC(=O)OC)C(C)C)[nH]4)cc3)cc2)[nH]1)C(C)C` [Compound 5c], for which, in data set [1] (HCV 1b replicon), the “decrease of activity on introduction of torsion angle in the linker” value (“decrease of activity” for short) is recorded as 16- to 15,000 fold.

Consider `COC(=O)N[C@H](C(=O)N1CCC[C@H]1c1ncc(-c2ccc(-c3ccc(-c4ccc(-c5cnc([C@@H]6CCCN6C(=O)[C@@H](NC(=O)OC)C(C)C)[nH]5)cc4)nc3)cc2)[nH]1)C(C)C` [Compound 11b], for which the “anti-HCV activity (in words)” value in data set [1] (HCV 1b replicon) is “low picomolar range”.

`COC(=O)N[C@H](C(=O)N1CCC[C@H]1c1ncc(-c2ccc(-c3ccc(-c4ccc(-c5ccc(-c6cnc([C@@H]7CCCN7C(=O)[C@@H](NC(=O)OC)C(C)C)[nH]6)cc5)cc4)cc3)cc2)[nH]1)C(C)C` [Compound 11e]: in data set [1] (HCV 1b replicon), the “loss of activity at the EC50 level compared to BMS-790052” value is 37 fold.

With `COC(=O)N[C@H](C(=O)N1CCC[C@H]1c1ncc(-c2ccc(-c3cn(-c4ccc(-c5cnc([C@@H]6CCCN6C(=O)[C@@H](NC(=O)OC)C(C)C)[nH]5)cc4)nn3)cc2)[nH]1)C(C)C` [Compound 17], the “decrease of activity” value in data set [1] (HCV 1b replicon) was 16- to 15,000 fold.

With `COC(=O)N[C@H](C(=O)N1CCC[C@H]1c1ncc(-c2ccc(-c3cccc(-c4ccc(-c5cnc([C@@H]6CCCN6C(=O)[C@@H](NC(=O)OC)C(C)C)[nH]5)cc4)c3)cc2)[nH]1)C(C)C` [Compound 11c], the “decrease of activity” value in data set [1] (HCV 1b replicon) is given as 16- to 15,000 fold.

On to `COC(=O)N[C@H](C(=O)N1CCC[C@H]1c1ncc(-c2ccc(Oc3ccc(-c4cnc([C@@H]5CCCN5C(=O)[C@@H](NC(=O)OC)C(C)C)[nH]4)cc3)cc2)[nH]1)C(C)C` [Compound 5b], for which, in data set [1] (HCV 1b replicon), the “decrease of activity” value is recorded as 16- to 15,000 fold.

On to `COC(=O)N[C@H](C(=O)N1CCC[C@H]1c1ncc(-c2ccc(-c3ccc(-c4cnc([C@@H]5CCCN5C(=O)[C@@H](NC(=O)OC)C(C)C)[nH]4)s3)cc2)[nH]1)C(C)C` [Compound 5d], for which the “anti-HCV activity (in words)” value in data set [1] (HCV 1b replicon) is given as “almost complete loss of anti-HCV activity”.

Take `COC(=O)N[C@H](C(=O)N1CCC[C@H]1c1ncc(-c2ccc(-c3ccc(-c4ccc(-c5cnc([C@@H]6CCCN6C(=O)[C@@H](NC(=O)OC)C(C)C)[nH]5)cc4)s3)cc2)[nH]1)C(C)C` [Compound 11d]: the “decrease of activity” value in data set [1] (HCV 1b replicon) is given as 16- to 15,000 fold.

Regarding `COC(=O)N[C@H](C(=O)N1CCC[C@H]1c1ncc(-c2ccc(-c3ccc(-c4ccc(-c5cnc([C@@H]6CCCN6C(=O)[C@@H](NC(=O)OC)C(C)C)[nH]5)cc4)cc3)cc2)[nH]1)C(C)C` [Compound 11a], in data set [1] (HCV 1b replicon), the “anti-HCV activity (in words)” value is recorded as “low picomolar range”. Moreover, the “therapeutic index CC50/EC50” value in data set [1] (HCV replicon assay) is “over four million”.

For `COC(=O)N[C@H](C(=O)N1CCC[C@H]1c1ncc(-c2ccc(-c3ccc(-c4cnc([C@@H]5CCCN5C(=O)[C@@H](NC(=O)OC)C(C)C)[nH]4)cc3)cc2)[nH]1)C(C)C` [BMS-790052], the “reduction in HCV RNA” value in data set [2] is on record as “over 3 log10 IU/mL”. In addition, the “median effective antiviral concentration (EC50) in vitro” value in data set [3] was “picomolar range”.
